The values that follow are results of earlier work, collected in patent US20230285287A1, “PHARMACEUTICAL COMPOSITIONS” (DOUGLAS PHARMACEUTICALS LIMITED, priority 2019, published 2023).

The conditions of the series: known from the literature (Donato et al.).

Entries after “also recorded” stand apart in the source; their conditions may differ.

In the case of `CC(C)c1nc(CN(C)C(=O)N[C@H](C(=O)N[C@@H](Cc2ccccc2)C[C@H](O)[C@H](Cc2ccccc2)NC(=O)OCc2cncs2)C(C)C)cs1` [Ritonavir, 1,3-thiazol-5-ylmethyl N-[(2S,3S,5S)-3-hydroxy-5-[[(2S)-3-methyl-2-[[methyl-[(2-propan-2-yl-1,3-thiazol-4-yl)methyl]carbamoyl]amino]butanoyl]amino]-1,6-diphenylhexan-2-yl]carbamate], the “chemical stability / degradation route” value is given as “thermolytically driven; also recorded: particularly prone to hydrolysis; also recorded: oxygen labile”.
